# Legend:
# [1] = test system: Pseudomonas aeruginosa, ATCC 27853; assay: MIC by serial twofold broth dilution, Pseudo; format: cell-based; set-up: unit not given here; conditions: Mueller Hinton broth
# Source text: (§1) The antibacterial activities of certain new compounds are indicated in Table 4 as their minimum inhibitory concentrations (MICs) against Escherichia coli, Staphylococcus aureus, and Pseudomonas aeruginosa. MICs can be determined by the conditions disclosed in Table 4, as well as in Jarolmen, H. et al., “Activity of Minocycline Against R-Factor Carrying Enterobacteriaceae,” Infectious Immunity, Vol. 1, No. 4, pp. 321-326, 1970, the disclosure of which is incorporated herein by reference.
# [2] = test system: Staphylococcus aureus Smith; assay: MIC by serial twofold broth dilution, Staph; format: cell-based; set-up: unit not given here; conditions: Mueller Hinton broth
# Source text: as §1
# [3] = test system: Escherichia coli, ATCC #26; assay: MIC by serial twofold broth dilution, E. coli; format: cell-based; set-up: unit not given here; conditions: Mueller Hinton broth
# Source text: as §1
# [4] = human, in vivo; cited from earlier work
Substance,Pseudo MIC [1],Staph MIC [2],E. coli MIC [3],"neurotoxicity, overall incidence [4] [%]"
n-Octylcarbamyl-colistin decapeptide [Compound 51],0.6,20,1.25,
Polymyxin B1 [reference compound],0.6,10,0.6,
N-(n-Decanoyl)phenylalanyl-colistin decapeptide [Compound 52],2.5,2.5,1.25,
Polymyxin B [reference compound],0.6,>10,0.6,
Colistin [reference compound],0.6,>20,0.6,7.3
P-Toluenesulfonyl-Colistin decapeptide [Compound 53],0.6,>20,1.25,
Cyclohexylcarbamyl-[Ile^7]-Polymyxin Decapeptide [Compound 48],0.6,,0.6,
[Ile^7]-polymyxin B1 [reference compound],1.25,20,0.6,
